Data from patent US12673933B2, “Aminopyrazine compounds as HPK1 inhibitor and the use thereof” (BEIGENE, LTD., priority 2019, dated 2026).

Molecular target: T1, HPK1 kinase (aa1-346, Life Technologies) (Homo sapiens, UniProt Q92918)
T1 construct: HPK1 kinase (aa1-346, Life Technologies); purchased Life Technologies
T1 sequence (Q92918 1-346): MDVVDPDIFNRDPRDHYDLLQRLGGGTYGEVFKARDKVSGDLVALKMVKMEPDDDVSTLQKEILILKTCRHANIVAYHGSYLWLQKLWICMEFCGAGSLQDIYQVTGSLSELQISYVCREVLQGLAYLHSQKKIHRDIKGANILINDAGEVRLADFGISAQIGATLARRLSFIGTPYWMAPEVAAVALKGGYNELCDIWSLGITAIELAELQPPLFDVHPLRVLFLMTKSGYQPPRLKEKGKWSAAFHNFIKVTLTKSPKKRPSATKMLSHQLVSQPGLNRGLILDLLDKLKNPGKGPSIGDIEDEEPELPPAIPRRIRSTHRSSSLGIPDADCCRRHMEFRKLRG
Assay: HPK Kinase Activity Assay at 1 mM ATP (TR-FRET)
Assay type: biochemical
Details: HPK1 kinase 40 nM, 0.5 μM STK1 substrate, read-out: Enzymatic activity IC50
Method: HPK Kinase Activity Assay at 1 mM ATP
Compounds disclosed herein were tested for inhibition of HPK1 kinase (aa1-346, Life Technologies) activity in assays based on the time-resolved fluorescence-resonance energy transfer (TR-FRET) methodology. The assays were carried out in 384-well low volume black plates in a reaction mixture containing HPK1 kinase (40 nM), 1 mM ATP, 0.5 μM STK1 substrate and 0-10 μM compound in buffer containing 50 mM HEPES, 0.01% BSA, 0.1 mM Orthovanadate, 10 mM MgCl2, 1 mM DTT, pH=7.0, 0.005% Tween-20. The kinase was incubated with the compounds disclosed herein or DMSO for 60 minutes at room temperature and the reaction was initiated by the addition of ATP and STK1 substrate. After reaction at room temperature for 120 minutes, an equal volume of stop/detection solution was added according to the manufacture's instruction (CisBio). The stop/detection solution contained STK Antibody-Cryptate and XL665-conjugated streptavidin in Detection Buffer. The TR-FRET signals (ratio of fluorescence emission at 665 nm over emission at 620 nm with excitation at 337 nm wavelength) were recorded on a PHERAstar FS plate reader (BMG Labtech). Phosphorylation of STK1 substrate led to the binding of STK Antibody-Cryptate to the biotinylated STK1 substrate, which places fluorescent donor (Eu^3+ crypate) in close proximity to the accepter (Streptavidin-XL665), thus resulting in a high degree of fluorescence resonance energy transfer. The inhibition of HPK1 in presence of increasing concentrations of compounds was calculated based on the ratio of fluorescence at 665 nm to that at 620 nm. The IC50 for each compound was derived from fitting the data to the four-parameter logistic equation by Graphpad Prism software.

IC50 [µM]	Compound
0.025	Cc1cc(-c2cnc(N)c(OCc3ccnc(N)c3)n2)cc2c1CN(C)CC2 [Example 31, 3-((2-aminopyridin-4-yl)methoxy)-5-(2,8-dimethyl-1,2,3,4-tetrahydroisoquinolin-6-yl)pyrazin-2-amine]
0.0051	Cc1cnc(N)cc1COc1nc(-c2cc(C)c3c(c2)CN(C)CC3)cnc1N [Example 32, 3-((2-amino-5-methylpyridin-4-yl)methoxy)-5-(2,5-dimethyl-1,2,3,4-tetrahydroisoquinolin-7-yl)pyrazin-2-amine]
0.0082	Cc1cc(-c2cnc(N)c(OCc3ccncc3OCc3ccccc3)n2)cc2c1CCN(C)C2 [Example 33, 3-((3-(benzyloxy)pyridin-4-yl)methoxy)-5-(2,5-dimethyl-1,2,3,4-tetrahydroisoquinolin-7-yl)pyrazin-2-amine]
0.012	Cc1cc(-c2cnc(N)c(OCc3ccnc4[nH]ccc34)n2)cc2c1CCN(C)C2 [Example 34, 3-((1H-pyrrolo[2,3-b]pyridin-4-yl)methoxy)-5-(2,5-dimethyl-1,2,3,4-tetrahydroisoquinolin-7-yl)pyrazin-2-amine]
0.016	COc1c(COc2nc(-c3cc(C)c4c(c3)CN(C)CC4)cnc2N)ccnc1N [Example 35, 3-((2-amino-3-methoxypyridin-4-yl)methoxy)-5-(2,5-dimethyl-1,2,3,4-tetrahydroisoquinolin-7-yl)pyrazin-2-amine]
0.093	Cc1cc(-c2cnc(N)c(-c3cn[nH]c3)n2)cc2c1CCN(C)C2 [Example 36, 5-(2,5-dimethyl-1,2,3,4-tetrahydroisoquinolin-7-yl)-3-(1H-pyrazol-4-yl)pyrazin-2-amine]
0.057	Cc1cc(-c2cnc(N)c(OCc3ccnc(NCC4CC4)c3)n2)cc2c1CCN(C)C2 [Example 38, 3-((2-((cyclopropylmethyl)amino)pyridin-4-yl)methoxy)-5-(2,5-dimethyl-1,2,3,4-tetrahydroisoquinolin-7-yl)pyrazin-2-amine]
0.085	CC(=O)Nc1cc(COc2nc(-c3cc(C)c4c(c3)CN(C)CC4)cnc2N)ccn1 [Example 39, N-(4-(((3-amino-6-(2,5-dimethyl-1,2,3,4-tetrahydroisoquinolin-7-yl)pyrazin-2-yl)oxy)methyl)pyridin-2-yl)acetamide]
0.029	CCNc1cc(COc2nc(-c3cc(C)c4c(c3)CN(C)CC4)cnc2N)ccn1 [Example 40, 5-(2,5-dimethyl-1,2,3,4-tetrahydroisoquinolin-7-yl)-3-((2-(ethylamino)pyridin-4-yl)methoxy)pyrazin-2-amine]
0.0089	CCOc1c(COc2nc(-c3cc(C)c4c(c3)CN(C)CC4)cnc2N)ccnc1N [Example 41, 3-((2-amino-3-ethoxypyridin-4-yl)methoxy)-5-(2,5-dimethyl-1,2,3,4-tetrahydroisoquinolin-7-yl)pyrazin-2-amine]
0.094	Cc1cc(-c2cnc(N)c(OCc3ccncc3Oc3ccccc3)n2)cc2c1CCN(C)C2 [Example 42, 5-(2,5-dimethyl-1,2,3,4-tetrahydroisoquinolin-7-yl)-3-((3-phenoxypyridin-4-yl)methoxy)pyrazin-2-amine]
0.056	Cc1cc(-c2cnc(N)c(OCc3cc[nH]n3)n2)cc2c1CCN(C)C2 [Example 43, 3-((1H-pyrazol-3-yl)methoxy)-5-(2,5-dimethyl-1,2,3,4-tetrahydroisoquinolin-7-yl)pyrazin-2-amine]
0.019	Cc1cc(-c2cnc(N)c(OCc3ccnc4[nH]cnc34)n2)cc2c1CCN(C)C2 [Example 44, 3-((3H-imidazo[4,5-b]pyridin-7-yl)methoxy)-5-(2,5-dimethyl-1,2,3,4-tetrahydroisoquinolin-7-yl)pyrazin-2-amine and 3-((1H-imidazo[4,5-b]pyridin-7-yl)methoxy)-5-(2,5-dimethyl-1,2,3,4-tetrahydroisoquinolin-7-yl)pyrazin-2-amine]
0.015	CCn1cc(Oc2nc(-c3cc(C)c4c(c3)CN(C)CC4)cnc2N)cn1 [Example 45, 5-(2,5-dimethyl-1,2,3,4-tetrahydroisoquinolin-7-yl)-3-(1-ethyl-1H-pyrazol-4-yloxy)pyrazin-2-amine]
0.021	Cc1cc(-c2cnc(N)c(-n3cc(C(=O)N(C)C)cn3)n2)cc2c1CCN(C)C2 [Example 46, 1-(3-amino-6-(2,5-dimethyl-1,2,3,4-tetrahydroisoquinolin-7-yl)pyrazin-2-yl)-N,N-dimethyl-1H-pyrazole-4-carboxamide]
0.047	Cc1cc(-c2cnc(N)c(O[C@H](C)c3c(Cl)ccc(C(=O)NC4CC4)c3Cl)n2)cc2c1CCN(C)C2 [Example 47A, (R)-3-(1-(3-amino-6-(2,5-dimethyl-1,2,3,4-tetrahydroisoquinolin-7-yl)pyrazin-2-yloxy)ethyl)-2,4-dichloro-N-cyclopropylbenzamide]
2.68	Cc1cc(-c2cnc(N)c(O[C@@H](C)c3c(Cl)ccc(C(=O)NC4CC4)c3Cl)n2)cc2c1CCN(C)C2 [Example 47B, (S)-3-(1-(3-amino-6-(2,5-dimethyl-1,2,3,4-tetrahydroisoquinolin-7-yl)pyrazin-2-yloxy)ethyl)-2,4-dichloro-N-cyclopropylbenzamide]
0.016	Cc1cc(-c2cnc(N)c(OCc3ccncc3OC3CC3)n2)cc2c1CCN(C)C2 [Example 149, 3-((3-cyclopropoxypyridin-4-yl)methoxy)-5-(2,5-dimethyl-1,2,3,4-tetrahydroisoquinolin-7-yl)pyrazin-2-amine]
0.021	Cc1cc(-c2cnc(N)c(OCc3ccnc(N)c3Cl)n2)cc2c1CCN(C)C2 [Example 152, 3-((2-amino-3-chloropyridin-4-yl)methoxy)-5-(2,5-dimethyl-1,2,3,4-tetrahydroisoquinolin-7-yl)pyrazin-2-amine]
0.0072	COc1cc(-c2cnc(N)c(OCc3ccnc(N)c3)n2)cc2c1CCN(C)C2 [Example 179, 3-((2-aminopyridin-4-yl)methoxy)-5-(5-methoxy-2-methyl-1,2,3,4-tetrahydroisoquinolin-7-yl)pyrazin-2-amine]
0.021	COc1cnccc1COc1nc(-c2cc3c(c(OC)c2)CCN(C)C3)cnc1N [Example 180, 5-(5-methoxy-2-methyl-1,2,3,4-tetrahydroisoquinolin-7-yl)-3-((3-methoxypyridin-4-yl)methoxy)pyrazin-2-amine]
0.0081	COc1cnc2[nH]ccc2c1COc1nc(-c2cc(C)c3c(c2)CN(C)CC3)cnc1N [Example 188, 5-(2,5-dimethyl-1,2,3,4-tetrahydroisoquinolin-7-yl)-3-((5-methoxy-1H-pyrrolo[2,3-b]pyridin-4-yl)methoxy)pyrazin-2-amine]
0.012	CNc1cc(-c2cnc(N)c(OCc3ccncc3OC)n2)cc2c1CCN(C)C2 [Example 205, 7-(5-amino-6-((3-methoxypyridin-4-yl)methoxy)pyrazin-2-yl)-N,2-dimethyl-1,2,3,4-tetrahydroisoquinolin-5-amine]
0.004	Cc1cc(-c2cnc(N)c(OCc3cc(N)nc(N)c3)n2)cc2c1CCN(C)C2 [Example 222, 4-((3-amino-6-(2,5-dimethyl-1,2,3,4-tetrahydroisoquinolin-7-yl)pyrazin-2-yloxy)methyl)pyridine-2,6-diamine]
0.054	Cc1cc(-c2cnc(N)c(Oc3cnn(C(C)C)c3)n2)cc2c1CN(C)CC2 [Example 242, 5-(2,8-dimethyl-1,2,3,4-tetrahydroisoquinolin-6-yl)-3-(1-isopropyl-1H-pyrazol-4-yloxy)pyrazin-2-amine]
0.008	Cc1cc(-c2cnc(N)c(OCc3ccnc(N)c3OC3CCOCC3)n2)cc2c1CCN(C)C2 [Example 249, 3-((2-amino-3-((tetrahydro-2H-pyran-4-yl)oxy)pyridin-4-yl)methoxy)-5-(2,5-dimethyl-1,2,3,4-tetrahydroisoquinolin-7-yl)pyrazin-2-amine]
0.0051	[2H]C([2H])(Oc1nc(-c2cc(C)c3c(c2)CN(C)CC3)cnc1N)c1ccnc(N)c1 [Example 266, 3-((2-aminopyridin-4-yl)methoxy-d2)-5-(2,5-dimethyl-1,2,3,4-tetrahydroisoquinolin-7-yl)pyrazin-2-amine]
0.011	CN1CCc2c(cc(-c3cnc(N)c(OCc4ccnc(N)c4)n3)cc2C(F)(F)F)C1 [Example 271, 3-((2-aminopyridin-4-yl)methoxy)-5-(2-methyl-5-(trifluoromethyl)-1,2,3,4-tetrahydroisoquinolin-7-yl)pyrazin-2-amine]
